In article PMC7400135, “3-(5-Nitrofuran-2-yl)prop-2-en-1-one Derivatives, with Potent Antituberculosis Activity, Inhibit A Novel Therapeutic Target, Arylamine N-acetyltransferase, in Mycobacteria” (Antibiotics, 2020):
Converted amounts (≈) assume the structure as drawn. Like-named read-outs stand apart in the source and are kept apart here. Marks after values point to notes of the source that are not given here.

Columns and labels:
[1] = system: M. tuberculosis H37Rv (ATCC 25618); test: HT-SPOTi growth inhibition (MIC), M. tuberculosis H37Rv; type: cell-based; details: Mycobacterium tuberculosis; HT-SPOTi agar assay; read-out: MIC Mtb H37Rv
[2] = system: M. bovis BCG (ATCC 35734); test: microbe, parasite or virus in culture; type: cell-based; details: Mycobacterium tuberculosis variant bovis BCG, 336 h, read-out: MIC Mycobacterium bovis BCG
M. aurum (NCTC 10437) [3] = test: HT-SPOTi growth inhibition (MIC), M. aurum; type: cell-based; details: Mycolicibacterium aurum, NCTC10437, 120 h; HT-SPOTi agar assay, 35 °C 5 days; read-out: MIC Mycobacterium aurum
E. coli (NCTC 10538) = test: HT-SPOTi growth inhibition (MIC), E. coli; type: cell-based, Escherichia coli; details: 37 °C 16 h; for MIC: Escherichia coli, NCTC10538, LB agar; for MIC Escherichia coli: LB agar
S. aureus (ATCC 25923) = test: HT-SPOTi growth inhibition (MIC), S. aureus; type: cell-based, Staphylococcus aureus; details: 37 °C 16 h; for MIC Staphylococcus aureus: LB agar; for MIC: Staphylococcus aureus, ATCC25923, LB agar
[4] = target: recombinant Mycobacterium marinum N-acetyltransferase (MMNAT) (Mycobacterium marinum, UniProt B2HIZ6); test: Inhibition of recombinant MMNAT (DTNB assay); type: biochemical
[5] = system: human monocyte THP-1 cell line; details: resazurin assay, 48 h incubation
[6] = system: murine macrophage RAW 264.7 cell line; details: resazurin assay, 48 h incubation
[7] = system: M. bovis BCG (ATCC 35734); details: ref Gupta and Bhakta, 2012; cited from earlier work
M. aurum (NCTC 10437) [8] = system: M. aurum (NCTC 10437); design: method as in Gupta and Bhakta, 2012; details: ref Gupta and Bhakta, 2012; cited from earlier work
[9] = system: M. bovis BCG infected in THP-1 macrophages; test: microbe, parasite or virus in culture; type: cell-based, Mycobacterium bovis BCG; details: for ex vivo MIC as multiple of MIC: M. bovis BCG in THP-1 macrophages; for MIC: Mycobacterium tuberculosis variant bovis BCG, BCG, 48 h, read-out: ex vivo MIC
[10] = hydralazine 450 µM, acetyl CoA 400 µM, extrapolated from linear regression, read-out: IC50 MMNAT
[11] = value in brackets, same IC50 in mg/L, read-out: IC50 MMNAT

Chain of recombinant Mycobacterium marinum N-acetyltransferase (MMNAT) (B2HIZ6 entry or part of it): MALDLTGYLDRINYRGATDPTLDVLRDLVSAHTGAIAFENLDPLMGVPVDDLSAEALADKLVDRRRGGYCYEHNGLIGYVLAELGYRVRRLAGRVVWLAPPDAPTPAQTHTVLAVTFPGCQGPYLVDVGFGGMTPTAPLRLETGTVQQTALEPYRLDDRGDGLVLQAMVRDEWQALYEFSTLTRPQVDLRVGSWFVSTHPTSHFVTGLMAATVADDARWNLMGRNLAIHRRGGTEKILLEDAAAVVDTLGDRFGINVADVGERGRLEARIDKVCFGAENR

O=C(/C=C/c1ccc([N+](=O)[O-])o1)c1ccc(N2CCCCC2)cc1 [Compound 2]
MIC [1]: 0.031 µg/mL (≈ 0.095 µM)
MIC [2]: 0.0075 µg/mL (≈ 0.023 µM)
MIC (M. aurum (NCTC 10437) [3]): > 500 µg/mL
MIC (E. coli (NCTC 10538)): > 500 µg/mL
MIC Escherichia coli (E. coli (NCTC 10538)): inactive
MIC Staphylococcus aureus (S. aureus (ATCC 25923)): inactive
MIC (S. aureus (ATCC 25923)): > 500 µg/mL
IC50 [4, 10]: 269 nM
IC50 [4, 11]: 270 nM
GIC THP-1 Cell Line [5]: 62.5 mg/L
GIC RAW 264.7 Cell Line [6]: 125 mg/L

CO[C@H]1/C=C/O[C@@]2(C)Oc3c(C)c(O)c4c(O)c(c(/C=N/N5CCN(C)CC5)c(O)c4c3C2=O)NC(=O)/C(C)=C\C=C\[C@H](C)[C@H](O)[C@@H](C)[C@@H](O)[C@@H](C)[C@H](OC(C)=O)[C@@H]1C [Rifampicin]
MIC [1]: 0.125 µg/mL (≈ 0.152 µM)
IC50 [4]: > 1000 nM
MIC Mycobacterium bovis BCG [7]: 0.50 ^# mg/L
MIC Mycobacterium aurum (M. aurum (NCTC 10437) [8]): 0.40 ^# mg/L

CC1(C)S[C@@H]2[C@H](NC(=O)[C@H](N)c3ccccc3)C(=O)N2[C@H]1C(=O)O [Ampicillin, reference compound]
MIC [2]: > 500 µg/mL
MIC (E. coli (NCTC 10538)): 2 µg/mL (≈ 5.72 µM)
MIC (S. aureus (ATCC 25923)): 0.125 µg/mL (≈ 0.358 µM)

O=C(/C=C/c1ccc([N+](=O)[O-])o1)c1ccc(N2CCOCC2)cc1 [Compound 1]
MIC [1]: 0.244 µg/mL (≈ 0.743 µM)
MIC [2]: 0.06 µg/mL (≈ 0.183 µM)
MIC (M. aurum (NCTC 10437) [3]): > 500 µg/mL
MIC (E. coli (NCTC 10538)): > 500 µg/mL
MIC Escherichia coli (E. coli (NCTC 10538)): inactive
MIC Staphylococcus aureus (S. aureus (ATCC 25923)): inactive
MIC (S. aureus (ATCC 25923)): > 500 µg/mL
IC50 [4, 10]: 207 nM
IC50 [4, 11]: 207 nM
ex vivo MIC as multiple of MIC [9]: 4 × MIC
MIC [9]: 0.24 µg/mL (≈ 0.731 µM)
GIC THP-1 Cell Line [5]: 62.5 mg/L
GIC RAW 264.7 Cell Line [6]: 125 mg/L

NNC(=O)c1ccncc1 [Isoniazid, reference compound]
MIC [1]: 0.8 µg/mL (≈ 5.83 µM)
MIC [2]: 0.625 µg/mL (≈ 4.56 µM)
MIC (M. aurum (NCTC 10437) [3]): 1.25 µg/mL (≈ 9.11 µM)
IC50 [4, 10]: > 1000 nM
ex vivo MIC as multiple of MIC [9]: 2 × MIC
MIC [9]: 1.25 µg/mL (≈ 9.11 µM)
GIC THP-1 Cell Line [5]: NA^a (not active until 500 mg/L concentration)
GIC RAW 264.7 Cell Line [6]: NA^a (not active until 500 mg/L concentration)

CN(Cc1cnc2nc(N)nc(N)c2n1)c1ccc(C(=O)N[C@@H](CCC(=O)O)C(=O)O)cc1 [Methotrexate, reference compound]
MIC [1]: > 500 µg/mL
MIC [2]: 500 µg/mL (≈ 1100 µM)
GIC THP-1 Cell Line [5]: 0.975 mg/L
GIC RAW 264.7 Cell Line [6]: 0.122 mg/L

O=[N+]([O-])c1cn2c(n1)OC[C@@H](OCc1ccc(OC(F)(F)F)cc1)C2 [Pretomanid]
MIC [1]: 0.061 µg/mL (≈ 0.17 µM)
IC50 [4, 10]: > 1000 nM

CC[C@@H](CO)NCCN[C@@H](CC)CO [Ethambutol]
MIC [1]: 2 µg/mL (≈ 9.79 µM)
IC50 [4, 10]: > 1000 nM
MIC Mycobacterium bovis BCG [7]: 2.00 ^# mg/L
MIC Mycobacterium aurum (M. aurum (NCTC 10437) [8]): 0.10 ^# mg/L

CCN(CC)c1ccc(C(=O)/C=C/c2ccc([N+](=O)[O-])o2)cc1 [Compound 3]
MIC [1]: 0.488 µg/mL (≈ 1.55 µM)
MIC [2]: 0.03 µg/mL (≈ 0.0954 µM)
MIC (M. aurum (NCTC 10437) [3]): > 500 µg/mL
MIC (E. coli (NCTC 10538)): 250 µg/mL (≈ 795 µM)
MIC (S. aureus (ATCC 25923)): 62.5 µg/mL (≈ 199 µM)
IC50 [4, 10]: 134 nM
IC50 [4, 11]: 134 nM
GIC THP-1 Cell Line [5]: 15.6 mg/L
GIC RAW 264.7 Cell Line [6]: 31.25 mg/L
